Laboratory results taken from patent publication US20150306108A1, “COMPOSITIONS OF ALDH1A1 INHIBITORS AND METHODS OF USE IN TREATING CANCER” (Indiana University Research & Technology Corporation, priority 2014, published 2015).
Where two headings read alike, the source gives them in different places.

Assays:
ALDH1A2 = molecular target: T1, ALDH1A2 (Homo sapiens, UniProt O94788); assay: biochemical; assay type: biochemical; settings: for effect on aldehyde oxidation catalyzed by ALDH1A2: 100 μM compound (CM037: concentrations up to 100 μM)
T1 sequence (O94788 1-518): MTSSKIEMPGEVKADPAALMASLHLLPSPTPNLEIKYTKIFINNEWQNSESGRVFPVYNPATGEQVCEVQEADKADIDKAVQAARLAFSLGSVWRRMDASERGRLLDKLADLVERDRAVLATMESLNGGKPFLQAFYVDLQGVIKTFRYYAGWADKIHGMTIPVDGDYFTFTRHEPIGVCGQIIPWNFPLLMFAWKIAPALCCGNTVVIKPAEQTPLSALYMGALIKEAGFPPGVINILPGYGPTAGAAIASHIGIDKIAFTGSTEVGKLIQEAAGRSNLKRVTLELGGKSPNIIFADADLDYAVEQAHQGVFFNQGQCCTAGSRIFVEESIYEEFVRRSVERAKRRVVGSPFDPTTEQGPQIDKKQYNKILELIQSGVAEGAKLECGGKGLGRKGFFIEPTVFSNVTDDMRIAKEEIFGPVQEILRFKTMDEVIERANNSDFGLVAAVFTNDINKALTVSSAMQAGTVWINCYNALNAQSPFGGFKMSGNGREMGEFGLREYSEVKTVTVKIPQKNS

ALDH3A1 = molecular target: T2, ALDH3A1 (Homo sapiens, UniProt P30838); assay: ALDH3A1 benzaldehyde oxidation activity assay; assay type: biochemical; settings: for IC50: Table 4, NI/NI(A) at 100 μM compound, read-out: IC50 in μM (SE) ALDH3A1
T2 construct: made in house
T2 sequence (P30838 1-453): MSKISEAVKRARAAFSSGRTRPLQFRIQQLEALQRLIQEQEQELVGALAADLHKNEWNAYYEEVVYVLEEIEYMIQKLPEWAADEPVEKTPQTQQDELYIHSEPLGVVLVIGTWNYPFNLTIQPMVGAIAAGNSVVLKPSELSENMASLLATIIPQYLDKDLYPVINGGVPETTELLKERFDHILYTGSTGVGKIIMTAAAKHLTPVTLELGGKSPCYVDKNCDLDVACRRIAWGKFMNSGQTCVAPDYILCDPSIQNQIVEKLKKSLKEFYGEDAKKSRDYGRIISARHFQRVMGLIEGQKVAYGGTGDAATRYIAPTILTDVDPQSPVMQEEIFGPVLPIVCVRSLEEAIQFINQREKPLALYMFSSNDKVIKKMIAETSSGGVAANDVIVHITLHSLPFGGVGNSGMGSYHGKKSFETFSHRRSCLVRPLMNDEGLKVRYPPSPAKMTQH
Protocol: Hits from the HTS were ordered from ChemDiv to determine if they had any effect on aldehyde oxidation and whether they were selective for ALDH1A1 compared to ALDH2 and ALDH3A1. Dehydrogenase activity of the three isoenzymes were assayed by monitoring the production of NADH at 340 nm (molar extinction coefficient of 6220 M^−1 cm^−1) on a Beckman DU-640 or Cary 300 Bio UV-Vis spectrophotometer for 2 to 3 minutes. For ALDH1A1 and ALDH2, the reaction contained 100-200 nM enzyme, 200 μM NAD^+, 100 μM propionaldehyde, and 1% DMSO in 50 mM Na^+ BES, pH 7.5 at room temperature. For ALDH3A1, the reaction contained 20 nM enzyme, 200 μM NAD^+, 300 μM benzaldehyde, and 1% DMSO in either 100 mM sodium phosphate or 50 mM Na^+ BES at pH 7.5 at room temperature.
For most compounds, 20 μM concentration was used for the selectivity assays. […] Following a 2 minute incubation of enzyme, compound, and NAD^+, the reaction was initiated by adding substrate. […] Data were fit to the four parameter EC50 equation using SigmaPlot (StatSys v12.3).
Dehydrogenase activity of purified recombinant ALDH1A1, ALDH1A2, ALDH1A3, ALDH1B1, ALDH2, and ALDH3A1 was assayed spectrophotometrically by monitoring the formation of NADH at 340 nm (molar extinction coefficient of 6220 M^−1 cm^−1) on a Beckman DU-640 or Cary 300 Bio UV-Vis spectrophotometer. Characterization of ALDH1A1 WT and ALDH1A1 G458N were performed by co-varying acetaldehyde and NAD^+ concentrations in reactions containing 150-300 nM enzyme, 50-500 μM or 20-200 μM acetaldehyde, and 50-500 μM NAD^+ in 50 mM sodium BES, pH 7.5 at 25° C. Reactions were initiated by adding enzyme. Selectivity of compounds for dehydrogenase activity of ALDH1A1, ALDH1A2, ALDH1A3, ALDH1B1 and ALDH2 were measured in a solution containing 100-200 nM enzyme, 200 μM NAD^+, 1% DMSO, and 100 μM propionaldehyde (non-saturating for all enzymes tested, except ALDH2) in 50 mM sodium BES. ALDH3A1 activity was measured under the following conditions: 25 nM enzyme, 200 μM NAD^+, 1% DMSO, and 300 μM benzaldehyde (˜KM) in either 100 mM sodium phosphate buffer, pH 7.5 or 50 mM sodium BES, pH 7.5. All assays were performed at 25° C. and were initiated by the addition of the aldehyde substrate following a 2 minute pre-incubation with compound and cofactor. Selectivity was initially tested using 20 μM compound, with ALDH1A1-selective modulators further tested using 100 μM compound. […] After a 2 minute pre-incubation with compound and NAD^+, all reactions were initiated by the addition of propionaldehyde. Data were fit to the four parameter EC50 equation using SigmaPlot (StatSys v12.3). The values represent the average of three independent experiments (each n=3). The mode of inhibition was determined via steady-state kinetics by co-varying inhibitor and substrate concentrations at fixed concentration of the second substrate. All reactions contained 100-150 nM ALDH1A1 and 1% DMSO in 50 mM sodium BES, pH 7.5 at 25° C. […] All data were fit to competitive, noncompetitive, uncompetitive, and mixed inhibition models using both single substrate-single inhibitor or tight binding inhibition programs in SigmaPlot (StatSys v12.3). The appropriate model was selected through analysis of goodness-of-fit and the residuals of those fits. The values represent the average of three independent experiments (each n=3) using at least two protein preps.
ALDH1A1, ALDH1A2, ALDH1A3, ALDH2, and ALDH3A1 were produced and purified as previously described. A highthroughput screen (HTS) of 64,000 compounds from the ChemDiv Corp. was performed to identify activators and inhibitors of ALDH1A1. The hydrolysis of para-nitrophenylacetate was used as a measure ALDH1A1 activity (see SM). Selectivity for closely related orthologs was tested at 20 and 100 μM using purified recombinant human ALDH1A1, ALDH1A2, ALDH1A3, ALDH2, and ALDH3A1. […]

[1] = Table 4, NI/NI(A) at 100 μM compound, read-out: IC50 in μM (SE) ALDH1A2

CC(C)CCn1c(CN2CCN(C(=O)c3ccco3)CC2)nc2c1c(=O)n(C)c(=O)n2C [CM026]
effect on ALDH1A2 (ALDH1A2; 20 μM compound): no effect | effect on aldehyde oxidation catalyzed by ALDH1A2 (ALDH1A2): modestly increased | IC50 (ALDH1A2; [1]): > 100 µM | effect on ALDH3A1 (ALDH3A1; 20 μM compound): no effect | IC50 (ALDH3A1): > 100 µM

Cn1c(=O)c2c(nc(CN3CCC(C(N)=O)CC3)n2CCCc2ccccc2)n(C)c1=O [CM028]
IC50 (ALDH1A2; [1]): > 100 µM | IC50 (ALDH3A1): > 100 µM

CCOC(=O)CSc1nc2c(sc3ccccc32)c(=O)n1CCCN1CCCC1 [CM037, ethyl-2-((4-oxo-3-(3-(pryrrolidin-1-yl)propyl)-3,4-dihydrobenzo[4,5]thioeno[3,2-d]pyrimidin-2-yl)thio)acetate]
effect on aldehyde oxidation catalyzed by ALDH1A2 (ALDH1A2): no effect | effect on ALDH3A1 (ALDH3A1; concentrations up to 100 μM): no effect

CC(C)CCn1c(CN2CCOCC2)nc2c1c(=O)n(C)c(=O)n2C [CM056]
IC50 (ALDH1A2; [1]): > 100 µM | IC50 (ALDH3A1): > 100 µM

COc1ccc(C(=O)CSC#N)cc1OC [CM302]
effect on ALDH3A1 (ALDH3A1; 20 μM compound): To a limited degree | IC50 with ALDH3A1 compared to ALDH1A1 and ALDH2 (ALDH3A1; fold higher): greater than 10 fold

Cn1c(=O)c2c(ncn2C)n(C)c1=O [Caffeine, reference compound]
IC50 (ALDH1A2; [1]): > 100 µM | IC50 (ALDH3A1): > 100 µM

Cn1c(=O)c2[nH]cnc2n(C)c1=O [Theophylline, reference compound]
IC50 (ALDH1A2): > 100 µM | IC50 (ALDH3A1): > 100 µM
